Values after ≈ are worked out from the molar mass of the structure shown.
Columns and labels:
Type in all cases: functional
[1] = system: Enterococcus faecium; assay: Antimicrobial activity against Enterococcus faecium ATCC 700221 incubated for 18 to 24 hrs by two-fold serial dilution method
[2] = system: Staphylococcus epidermidis; assay: Antimicrobial activity against methicillin-susceptible Staphylococcus epidermidis ATCC 12228 incubated for 18 to 24 hrs by two-fold serial dilution method
[3] = system: Staphylococcus aureus; assay: Antimicrobial activity against methicillin-resistant Staphylococcus aureus ATCC 33591 incubated for 18 to 24 hrs by two-fold serial dilution method
[4] = system: Staphylococcus aureus; assay: Antimicrobial activity against methicillin-susceptible Staphylococcus aureus ATCC 29213 incubated for 18 to 24 hrs by two-fold serial dilution method
[5] = system: Mycobacterium tuberculosis; assay: Antimicrobial activity against Mycobacterium tuberculosis H37Rv ATCC 27294 incubated for 7 days by microplate Alamar blue assay; conditions: H37Rv ATCC 27294, 168 h
[6] = system: Pseudomonas aeruginosa; assay: Antimicrobial activity against Pseudomonas aeruginosa PAO1 by CLSI-based broth microdilution method
[7] = system: Escherichia coli; assay: Antimicrobial activity against tolC deficient Escherichia coli KD65 by CLSI-based broth microdilution method; conditions: Escherichia coli, KD65; read-out: MIC
[8] = system: Staphylococcus aureus; assay: Antimicrobial activity against Staphylococcus aureus ATCC 29213 by CLSI-based broth microdilution method; conditions: Staphylococcus aureus, ATCC 29213; read-out: MIC

| Structure (SMILES) | MIC [1] | MIC [2] | MIC [3] | MIC [4] | MIC [5] | MIC [6] | MIC [7] | MIC [8] |
| --- | --- | --- | --- | --- | --- | --- | --- | --- |
| COc1c(N2CCN(C/C(C)=N/Nc3ccc(Cl)cc3)CC2)c(F)cc2c(=O)c(C(=O)O)cn(C3CC3)c12 | 64 µg/mL (≈ 118 µM) | 0.125 µg/mL (≈ 0.231 µM) | 0.06 µg/mL (≈ 0.111 µM) | 0.06 µg/mL (≈ 0.111 µM) | 0.433 µM (≈ 0.235 µg/mL) | – | – | – |
| O=C(O)c1cn(C2CC2)c2c3c(c(F)cc2c1=O)N1CCCC1CCO3 (configuration not stated) | – | – | – | – | – | 21 µg/mL (≈ 58.6 µM) | 0.008 µg/mL (≈ 0.0223 µM) | 0.21 µg/mL (≈ 0.586 µM) |
| N[C@@H]1CCN2c3c(F)cc4c(=O)c(C(=O)O)cn(C5CC5)c4c3C=C[C@H]12 | – | – | – | – | – | > 64 µg/mL | 1 µg/mL (≈ 2.81 µM) | 8 µg/mL (≈ 22.5 µM) |
| COc1c(N2CCN(C/C(C)=N/Nc3nc4ccccc4s3)CC2)c(F)cc2c(=O)c(C(=O)O)cn(C3CC3)c12 | 64 µg/mL (≈ 113 µM) | 0.5 µg/mL (≈ 0.886 µM) | 0.5 µg/mL (≈ 0.886 µM) | 0.25 µg/mL (≈ 0.443 µM) | 0.313 µM (≈ 0.177 µg/mL) | – | – | – |
| O=C(O)c1cn(C2CC2)c2c3c(c(F)cc2c1=O)N1CCCC1CS(=O)(=O)C3 (configuration not stated) | – | – | – | – | – | > 64 µg/mL | 0.25 µg/mL (≈ 0.615 µM) | 1 µg/mL (≈ 2.46 µM) |
| COc1c(N2CCN(C/C(C)=N/Nc3nc4ccccc4[nH]3)CC2)c(F)cc2c(=O)c(C(=O)O)cn(C3CC3)c12 | 128 µg/mL (≈ 234 µM) | 1 µg/mL (≈ 1.83 µM) | 1 µg/mL (≈ 1.83 µM) | 1 µg/mL (≈ 1.83 µM) | 0.434 µM (≈ 0.238 µg/mL) | – | – | – |
| N[C@H]1C[C@H]2CCOc3c(c(F)cc4c(=O)c(C(=O)O)cn(C5CC5)c34)N2C1 | – | – | – | – | – | 0.093 µg/mL (≈ 0.249 µM) | 0.004 µg/mL (≈ 0.0107 µM) | 0.015 µg/mL (≈ 0.0402 µM) |
| COc1c(N2CCN(C/C(C)=N/Nc3ccnc4cc(Cl)ccc34)CC2)c(F)cc2c(=O)c(C(=O)O)cn(C3CC3)c12 | > 128 µg/mL | 1 µg/mL (≈ 1.69 µM) | 0.5 µg/mL (≈ 0.843 µM) | 0.5 µg/mL (≈ 0.843 µM) | 0.266 µM (≈ 0.158 µg/mL) | – | – | – |
| N[C@@H]1CCN2c3c(F)cc4c(=O)c(C(=O)O)cn(C5CC5)c4c3/C=C\CC[C@H]12 | – | – | – | – | – | 32 µg/mL (≈ 83.5 µM) | 0.25 µg/mL (≈ 0.652 µM) | 4 µg/mL (≈ 10.4 µM) |
| N[C@@H]1C[C@H]2CCCc3c(c(F)cc4c(=O)c(C(=O)O)cn(C5CC5)c34)N2C1 | – | – | – | – | – | 32 µg/mL (≈ 86.2 µM) | 8 µg/mL (≈ 21.5 µM) | 8 µg/mL (≈ 21.5 µM) |
| N[C@@H]1CCN2c3c(F)cc4c(=O)c(C(=O)O)cn(C5CC5)c4c3SC[C@H]12 | – | – | – | – | – | 4 µg/mL (≈ 10.7 µM) | 0.03 µg/mL (≈ 0.0799 µM) | 0.125 µg/mL (≈ 0.333 µM) |
| O=C(O)c1cn(C2CC2)c2c3c(c(F)cc2c1=O)N1CCCC1C(=O)NC3 (configuration not stated) | – | – | – | – | – | > 64 µg/mL | 8 µg/mL (≈ 21.5 µM) | 16 µg/mL (≈ 43.1 µM) |
| CC(=O)N1Cc2c(c(F)cc3c(=O)c(C(=O)O)cn(C4CC4)c23)N2CCCC2C1 (configuration not stated) | – | – | – | – | – | > 16 µg/mL | 0.2 µg/mL (≈ 0.501 µM) | 0.082 µg/mL (≈ 0.205 µM) |
| O=C(O)c1cn(C2CC2)c2c3c(c(F)cc2c1=O)N1CCCC1COC3 (configuration not stated) | – | – | – | – | – | > 64 µg/mL | 1 µg/mL (≈ 2.79 µM) | 0.5 µg/mL (≈ 1.4 µM) |
| COc1c(N2CCN(C/C(C)=N/Nc3ccc(C(F)(F)F)cc3)CC2)c(F)cc2c(=O)c(C(=O)O)cn(C3CC3)c12 | 64 µg/mL (≈ 111 µM) | 0.25 µg/mL (≈ 0.434 µM) | 0.125 µg/mL (≈ 0.217 µM) | 0.125 µg/mL (≈ 0.217 µM) | 0.394 µM (≈ 0.227 µg/mL) | – | – | – |
| N[C@@H]1CCN2c3c(F)cc4c(=O)c(C(=O)O)cn(C5CC5)c4c3COC[C@H]12 | – | – | – | – | – | 0.5 µg/mL (≈ 1.34 µM) | 0.004 µg/mL (≈ 0.0107 µM) | 2 µg/mL (≈ 5.36 µM) |
| COc1c(N2CCN(C/C(C)=N/Nc3ccccc3)CC2)c(F)cc2c(=O)c(C(=O)O)cn(C3CC3)c12 | 64 µg/mL (≈ 126 µM) | 0.25 µg/mL (≈ 0.493 µM) | 0.25 µg/mL (≈ 0.493 µM) | 0.25 µg/mL (≈ 0.493 µM) | 0.398 µM (≈ 0.202 µg/mL) | – | – | – |
| COc1c(N2CCN(C/C(C)=N/Nc3ccccn3)CC2)c(F)cc2c(=O)c(C(=O)O)cn(C3CC3)c12 | 64 µg/mL (≈ 126 µM) | 0.125 µg/mL (≈ 0.246 µM) | 0.125 µg/mL (≈ 0.246 µM) | 0.125 µg/mL (≈ 0.246 µM) | 0.372 µM (≈ 0.189 µg/mL) | – | – | – |
| N[C@H]1CCN2c3c(F)cc4c(=O)c(C(=O)O)cn(C5CC5)c4c3CNC[C@H]12 | – | – | – | – | – | 0.5 µg/mL (≈ 1.34 µM) | ≤ 0.06 µg/mL | 1 µg/mL (≈ 2.69 µM) |
| O=C(O)c1cn(C2CC2)c2c3c(c(F)cc2c1=O)N1CCCC1C/C(=N\O)C3 (configuration not stated) | – | – | – | – | – | > 16 µg/mL | 0.03 µg/mL (≈ 0.0778 µM) | 0.125 µg/mL (≈ 0.324 µM) |
| N[C@@H]1CCN2c3c(F)cc4c(=O)c(C(=O)O)cn(C5CC5)c4c3CC[C@H]12 | – | – | – | – | – | 0.5 µg/mL (≈ 1.4 µM) | 0.004 µg/mL (≈ 0.0112 µM) | 0.03 µg/mL (≈ 0.0839 µM) |
| N[C@@H]1C[C@@H]2CCCc3c(c(F)cc4c(=O)c(C(=O)O)cn(C5CC5)c34)N2C1 | – | – | – | – | – | 1 µg/mL (≈ 2.69 µM) | 0.25 µg/mL (≈ 0.673 µM) | 0.25 µg/mL (≈ 0.673 µM) |
| O=C(O)c1cn(C2CC2)c2c(cc(F)c3c2nnn3-c2ccc(F)cc2)c1=O | – | – | – | – | – | 40 µg/mL (≈ 105 µM) | 0.25 µg/mL (≈ 0.654 µM) | 0.06 µg/mL (≈ 0.157 µM) |
| CN1Cc2c(c(F)cc3c(=O)c(C(=O)O)cn(C4CC4)c23)N2CCCC2C1 (configuration not stated) | – | – | – | – | – | > 64 µg/mL | 2 µg/mL (≈ 5.38 µM) | 32 µg/mL (≈ 86.2 µM) |
| N[C@@H]1C[C@H]2COCc3c(c(F)cc4c(=O)c(C(=O)O)cn(C5CC5)c34)N2C1 | – | – | – | – | – | 0.25 µg/mL (≈ 0.67 µM) | 0.008 µg/mL (≈ 0.0214 µM) | 0.015 µg/mL (≈ 0.0402 µM) |
| COc1cccc(N/N=C(\C)CN2CCN(c3c(F)cc4c(=O)c(C(=O)O)cn(C5CC5)c4c3OC)CC2)c1 | > 64 µg/mL | 0.25 µg/mL (≈ 0.465 µM) | 0.125 µg/mL (≈ 0.233 µM) | 0.125 µg/mL (≈ 0.233 µM) | 0.434 µM (≈ 0.233 µg/mL) | – | – | – |
| O=C(O)c1cn(C2CC2)c2c3c(c(F)cc2c1=O)N1CCCC1CN=C3 (configuration not stated) | – | – | – | – | – | 2 µg/mL (≈ 5.63 µM) | 0.25 µg/mL (≈ 0.703 µM) | 0.25 µg/mL (≈ 0.703 µM) |

— ChEMBL document CHEMBL4602605, “Fluoroquinolones structural and medicinal developments (2013-2018): Where are we now?” (Bioorg Med Chem, 2019)
